Measurements as given in patent US20240156744A1, “METHOD OF APPLYING ELECTRICAL IMPULSES FOR THE PURPOSE OF LOADING VARIOUS MOLECULES INTO PLANT-DERIVED NANOVESICLES” (EXO LAB ITALIA, S.r.l., priority 2021, published 2024).

Tests used:
[1] = system: drug-resistant CEM/VBL100 cells; test: Cytotoxicity by Trypan blue assay on CEM/VBL100 cells; format: cell-based; settings: CEM/VBL100, 24 h
Protocol: Increasing concentrations of VBL alone and loaded into the plant nanovesicles were used to assess the cytotoxic effect on CEM and CEM/VBL100 leukaemic cells by Trypan blue assay after 48 and 24 h of incubation, respectively. A) The cytotoxic effect on CEM cells starts to be evident at a concentration of 1000 ng/mL and is enhanced in VBL loaded in the plant nanovesicles (2.6-fold higher than in VBL alone).

human melanoma cells = test: Transfer of AO to tumour cells, spectrofluorimeter; format: cell-based; settings: AO 0.1 pg/mL; cells cultured in unbuffered medium
Source text: Acridine orange was not activated with blue light.

With `CC[C@]1(O)C[C@@H]2CN(CCc3c([nH]c4ccccc34)[C@@](C(=O)OC)(c3cc4c(cc3OC)N(C)[C@H]3[C@@](O)(C(=O)OC)[C@H](OC(C)=O)[C@]5(CC)C=CCN6CC[C@]43[C@@H]65)C2)C1` [VBL, vinblastine] the mortality at 0.0001 µg/mL [1] was 0.7%.

For `CN(C)c1ccc2cc3ccc(N(C)C)cc3nc2c1` [AO, Acridine Orange], the “percentage of AO transferred to tumour cells” value (human melanoma cells) was “significantly reduced”.
